Test results from ChEMBL document CHEMBL1201862, “PubChem BioAssay data set” (2004).
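Tested at 5 concentrations; 48 h exposure; 96-well plates; endpoints linearly interpolated, else capped at highest concentration. GI50 = concentration required for 50% inhibition of growth.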 Activity calls are given as the source filed them. Rule as the data show it: active = GI50 up to about 1.1 µM and inactive = higher.

What was measured:
Experiment in all cases: NCI anticancer screen, dose series, 48 h
K562 = system: K562
OVCAR-5 = system: OVCAR-5
A498 = system: A498
UO-31 = system: UO-31
SF-295 = system: SF-295
HCC 2998 = system: HCC 2998
OVCAR-4 = system: OVCAR-4
MCF7 = system: MCF7
CAKI-1 = system: CAKI-1
BT-549 = system: BT-549
MDA-MB-435 = system: MDA-MB-435
MDA-MB-231 = system: MDA-MB-231
DU-145 = system: DU-145
HCT-15 = system: HCT-15
DLD-1 = system: DLD-1
NCI/ADR-RES = system: NCI/ADR-RES
HOP-62 = system: HOP-62
TK-10 = system: TK-10
RPMI-8226 = system: RPMI-8226
HOP-92 = system: HOP-92

Row | Compound | GI50 (K562) | GI50 (OVCAR-5) | GI50 (A498) | GI50 (UO-31) | GI50 (SF-295) | GI50 (HCC 2998) | GI50 (OVCAR-4) | GI50 (MCF7) | GI50 (CAKI-1) | GI50 (BT-549) | GI50 (MDA-MB-435) | GI50 (MDA-MB-231) | GI50 (DU-145) | GI50 (HCT-15) [µM] | GI50 (DLD-1) | GI50 (NCI/ADR-RES) | GI50 (HOP-62) | GI50 (TK-10) | GI50 (RPMI-8226) | GI50 (HOP-92)
1 | NC(=O)c1c[se]c(C2OC(CO)C(O)C2O)n1 (stereo not drawn) | 0.627 µM (active) | 31 µM (inactive) | 44 µM (inactive) | 6.5 µM (inactive) | 2.39 µM (inactive) | 32.4 µM (inactive) | 3.99 µM (inactive) | 8.67 µM (inactive) | 6.93 µM (inactive) | 8.09 µM (inactive) | 7.29 µM (inactive) | 5.01 µM (inactive) | 31.8 µM (inactive) | 0.537 | 1.88 µM (inactive) | 9.16 µM (inactive) | 10.2 µM (inactive) | > 91.4 µM (inactive) | 6.43 µM (inactive) | > 100 µM (inactive)
2 | COc1ccc(CC2C(=O)NC(C)C(=O)N(C)C3C(=O)N(C)C(Cc4ccc(O)c(c4)Oc4ccc(cc4)C3O)C(=O)NC(C)C(=O)NC(C)C(=O)N2C)cc1 (stereo not drawn) | 0.0179 µM (active) | 0.0303 µM (active) | 0.022 µM (active) | 0.824 µM (active) | 0.0138 µM (active) | 0.0391 µM (active) | 0.00664 µM (active) | 0.0125 µM (active) | 0.0512 µM (active) | < 0.01 µM (active) | < 0.01 µM (active) | < 0.01 µM (active) | < 0.01 µM (active) | 0.658 | 0.321 µM (active) | 0.212 µM (active) | 0.0284 µM (active) | 0.336 µM (active) | 0.014 µM (active) | 0.0137 µM (active)
3 | Cc1nc2ccccc2nc1CC(=O)C(=O)Nc1ccc(Cl)cc1Cl | > 100 µM (inactive) | > 100 µM (inactive) | > 100 µM (inactive) | > 100 µM (inactive) | > 100 µM (inactive) | > 100 µM (inactive) | > 100 µM (inactive) |  | > 100 µM (inactive) |  |  |  |  | > 100 | > 100 µM (inactive) |  | > 100 µM (inactive) | > 100 µM (inactive) | > 100 µM (inactive) | > 100 µM (inactive)
4 | C/C=N\N1C(=O)c2ccccc2C1=O | > 100 µM (inactive) | > 100 µM (inactive) | > 100 µM (inactive) | > 100 µM (inactive) | > 100 µM (inactive) | > 100 µM (inactive) | > 100 µM (inactive) |  | > 100 µM (inactive) |  |  |  |  | > 100 | > 100 µM (inactive) |  | > 100 µM (inactive) | > 100 µM (inactive) | > 100 µM (inactive) | > 100 µM (inactive)
5 | C=C1[C@@H](C)[C@H]2[C@H](Cc3ccccc3)NC(=O)[C@]23OC(=O)/C=C/[C@H](O)CCC[C@@H](C)C/C=C/[C@H]3[C@@H]1O | 9.18 µM (inactive) | 32.2 µM (inactive) | 1.83 µM (inactive) | 0.258 µM (active) | 0.979 µM (active) | 50 µM (inactive) | 8.67 µM (inactive) | 16.6 µM (inactive) | 0.233 µM (active) | 15.4 µM (inactive) | 21.8 µM (inactive) | 5.31 µM (inactive) | 30.1 µM (inactive) | 0.619 | 0.828 µM (active) | 20.3 µM (inactive) | 0.605 µM (active) | 4.06 µM (inactive) | 1.82 µM (inactive) | 0.436 µM (active)
6 | COc1ccc(NC(=O)/C(=C/c2ccccc2)C(C)=O)cc1 | 12.5 µM (inactive) | 19.6 µM (inactive) | 21.1 µM (inactive) | 15.4 µM (inactive) | 14.2 µM (inactive) | 18.9 µM (inactive) | 11.6 µM (inactive) |  | 15.4 µM (inactive) |  |  |  |  | 13.2 | 12.8 µM (inactive) |  | 18 µM (inactive) | 20.3 µM (inactive) | 5.24 µM (inactive) | 15.8 µM (inactive)
7 | CCOC(=O)Cn1c(=O)[nH]c(=O)c2c1ncn2Cc1ccccc1 | > 100 µM (inactive) | > 100 µM (inactive) | > 100 µM (inactive) | > 100 µM (inactive) | > 100 µM (inactive) | > 100 µM (inactive) | > 100 µM (inactive) |  | > 100 µM (inactive) |  |  |  |  | > 100 | > 100 µM (inactive) |  | > 100 µM (inactive) | > 100 µM (inactive) | > 100 µM (inactive) | > 100 µM (inactive)
8 | CNC(=O)OCc1nc([S+](C)[O-])n(C)c1COC(=O)NC (stereo not drawn) | > 100 µM (inactive) | > 100 µM (inactive) | 38.7 µM (inactive) | > 100 µM (inactive) | > 100 µM (inactive) | > 100 µM (inactive) | > 51.9 µM (inactive) | > 100 µM (inactive) | > 58.7 µM (inactive) |  |  |  |  | > 100 | > 100 µM (inactive) | > 100 µM (inactive) | > 100 µM (inactive) | > 100 µM (inactive) | > 100 µM (inactive) | > 48.4 µM (inactive)
9 | Cc1cc(N(CCC#N)CCC#N)ccc1/C(Sc1ccccc1)=C(\NC(=O)/C=C/c1ccccc1)C(=O)Sc1ccccc1 | 2.41 µM (inactive) | 5.45 µM (inactive) | 4.06 µM (inactive) | 0.731 µM (active) | 3.17 µM (inactive) | 11.4 µM (inactive) | 3.06 µM (inactive) |  | 2.05 µM (inactive) |  |  |  |  | 3.73 | 1.73 µM (inactive) |  | 2.56 µM (inactive) | 5.35 µM (inactive) | 0.991 µM (active) | 2.92 µM (inactive)
10 | NC(=S)N/N=C(/CCN1CCCC1)CC(C1=C(O)C2=CCCCC2OC1=O)c1ccccc1 (stereo not drawn) | > 100 µM (inactive) | > 100 µM (inactive) | > 100 µM (inactive) | > 100 µM (inactive) | > 100 µM (inactive) | > 100 µM (inactive) | > 100 µM (inactive) |  | > 100 µM (inactive) |  |  |  |  | > 100 | > 100 µM (inactive) |  | > 100 µM (inactive) | > 100 µM (inactive) | > 100 µM (inactive) | 32.3 µM (inactive)
11 | CC1OC(n2cc(F)c(=O)[nH]c2=O)C=CC1O (stereo not drawn) | > 57.8 µM (inactive) | > 100 µM (inactive) | > 100 µM (inactive) | > 100 µM (inactive) | > 100 µM (inactive) | > 100 µM (inactive) | > 100 µM (inactive) |  | > 100 µM (inactive) |  |  |  |  | > 100 | > 100 µM (inactive) |  | > 100 µM (inactive) | > 100 µM (inactive) | > 92.3 µM (inactive) | > 100 µM (inactive)
12 | COc1ccc(-c2c3ccccc3c(-c3ccc(OC)cc3)c3ccccc23)cc1 | > 100 µM (inactive) | > 100 µM (inactive) | > 100 µM (inactive) | > 100 µM (inactive) | > 100 µM (inactive) | > 100 µM (inactive) | > 100 µM (inactive) |  | > 100 µM (inactive) |  |  |  |  | > 100 | > 100 µM (inactive) |  | > 100 µM (inactive) | > 100 µM (inactive) | > 100 µM (inactive) | > 100 µM (inactive)
